Results reported in patent US20180284095A1, “BIOMARKERS ASSOCIATED WITH LSD1 INHIBITORS AND USES THEREOF” (Oryzon Genomics, S.A., priority 2015, published 2018).

Legend:
Assay type in all cases: in vivo, mouse
Conditions in all cases: brain day 5, male CD1 mice pool
S100A8 = test: Microarray gene expression, brain of Hsd:ICR (CD1) mice, MTD study (Example 6)
Method: (§1) Total RNA was extracted from samples using the RNeasy extraction kit (Qiagen). The quality and concentration of the RNA was analyzed using the Agilent 2100 bioanalyzer and NanoDrop™ ND-1000 (Thermo Scientific). Samples with RNA integrity number (RIN)<6.0 were discarded. Total RNA (0.5 μg) amplification and labelling with Cy3 or Cy5 was carried out using the Eberwein mRNA amplification procedure (Van Gelder et al, Proc Natl Acad Sci USA 1990, 87:1663-1667) employing the MessageAmp™ aRNA amplification kit from Ambion (Applied Biosystems) following the manufacturer's instructions with minor modifications. As hybridization controls, plant mRNAs were transcribed from a plasmid containing the Zea mays Xet (xyloglucan endo-transglycosylase) cDNA and from a plasmid containing the Zea mays Zmmyb42 cDNA, independently prepared Cy3 and Cy5 labelled aRNA from these two RNAs using the Eberwein mRNA amplification procedure (as disclosed in Cerdà et al, Gen Comp Endocrinol 2008, 156:470-481).
(§2) The Cy3- and Cy5-labelled cRNAs and spikes were combined and hybridized to the microarray described in Example 2.6 for 17 h at 60° C. using Agilent's gaskets G2534-60002, G2534A hybridization chambers and DNA Hybridization Oven G2545A, according to the manufacturer's instructions. More specifically, equal amounts of Cy3 and Cy5 labeled Xet aRNA as well as equal amounts of Cy3 and Cy5 labeled Zmmyb42 aRNA were spiked into each mixture hybridized to the array. Arrays were washed and raw data were obtained using Agilent's DNA Microarray Scanner G2505B and Feature Extraction software (v10.1). The raw fluorescence intensity data were processed using applicant's proprietary software, and consists in the following operations:
(§3) Data normalization was carried out by an improved version of the nonlinear Q-splines normalization method (Workman et al., Genome Biol 2002, 3(9):research0048.1-0048.16). Normalization results were presented graphically as MA plots, as first described by Dudoit et al (Dudoit et al, Statistica Sinica, 2002, 12:111-139). Each point corresponds to a probe of the DNA array. M values (vertical axis) are the log-differential expression ratios. A values (horizontal axis) are the log-intensities of the spots. M and A are calculated from the Cy5 and Cy3 intensity values as of each spot. The DNA Array data is normalized using an improved version of non-linear Q-Splines normalization described by Workman et al., Genome Biol 2002, 3(9):research0048.1-0048.16. This process is useful to correct the deviation of the M values from the statistical assumption that most of the spots have M=0 in MA plots. […]. The data used to calculate the normalization fitting curve is the totality of the raw measurement dataset, excluding the signals for the probes for the spiked-in plant RNA controls and negative controls. In order to be able to normalize properly the data among all the experiments, the probe-set must include an important group of genes that should have no change (M=0) in the experiment. The normalization function is then applied to all the data, including controls.
(§4) Normalized and log-transformed data were used to calculate log 2 (sample/control) and Fold Change (FC) values. No background subtraction was applied to the signal intensity values during data processing, permitting robust selection of differentially expressed genes with low expression levels at the cost of potential sub-estimation of change when intensity levels are close to the array background level.
(§5) Male Hsd:ICR (CD1®) mice were maintained in air- and temperature-controlled cages with regular supply of water and food. A maximum of 3 mice were raised per cage. Three mice were assigned to each group. Before the first administration, each mouse was labeled and weighed. Test compounds were administered orally using 1 ml syringes using animal feeding needles proper for mice at 10 ml/kg as follows. […]

S100A9 = test: as above
Method: as §1, §2, §3, §4, §5

TUBB2C = test: Microarray gene expression, brain of Hsd:ICR (CD1) mice, MTD study (Example 6), housekeeping gene
Method: as §1, §2, §3, §4, §5

TUBB3 = test: as above
Method: as §1, §2, §3, §4, §5

[1] = 3 mg/kg oral x5 days vs vehicle
[2] = 10 mg/kg oral x5 days vs vehicle
[3] = 30 mg/kg oral x5 days vs vehicle
[4] = 100 mg/kg oral x5 days vs vehicle

| Substance | Hybridization signal sample_Cy5 S100A8 (S100A8; 3 mg/kg oral x5 days) | log2 (sample/control) S100A8 (S100A8; [1]) | Hybridization signal sample_Cy5 S100A8 (S100A8; 10 mg/kg oral x5 days) | log2 (sample/control) S100A8 (S100A8; [2]) | Hybridization signal sample_Cy5 S100A8 (S100A8; 30 mg/kg oral x5 days) | log2 (sample/control) S100A8 (S100A8; [3]) | Hybridization signal sample_Cy5 S100A8 (S100A8; 100 mg/kg oral x5 days) | log2 (sample/control) S100A8 (S100A8; [4]) | Hybridization signal sample_Cy5 S100A9 (S100A9; 3 mg/kg oral x5 days) | log2 (sample/control) S100A9 (S100A9; [1]) | Hybridization signal sample_Cy5 S100A9 (S100A9; 10 mg/kg oral x5 days) | log2 (sample/control) S100A9 (S100A9; [2]) | Hybridization signal sample_Cy5 S100A9 (S100A9; 30 mg/kg oral x5 days) | log2 (sample/control) S100A9 (S100A9; [3]) | Hybridization signal sample_Cy5 S100A9 (S100A9; 100 mg/kg oral x5 days) | log2 (sample/control) S100A9 (S100A9; [4]) | Hybridization signal sample_Cy5 TUBB2C (TUBB2C; 3 mg/kg oral x5 days) | log2 (sample/control) TUBB2C (TUBB2C; [1]) | Hybridization signal sample_Cy5 TUBB2C (TUBB2C; 10 mg/kg oral x5 days) | log2 (sample/control) TUBB2C (TUBB2C; [2]) | further results |
| --- | --- | --- | --- | --- | --- | --- | --- | --- | --- | --- | --- | --- | --- | --- | --- | --- | --- | --- | --- | --- | --- |
| (+) 5-((((trans)-2-(4-(benzyloxy)phenyl)cyclopropyl)amino)methyl)-1,3,4-oxadiazol-2-amine [Compound 2] | 126.363 | −0.1015 | 69.9912 | −1.156 | 80.188 | −1.029 | 39.3591 | −1.921 | 291.855 | −0.2512 | 117.175 | −1.515 | 149.542 | −1.285 | 45.3442 | −2.876 | 5746.61 | 0.1908 | 5742.06 | 0.1179 | Hybridization signal sample_Cy5 TUBB2C (TUBB2C; 30 mg/kg oral x5 days): 6326.04; log2 (sample/control) TUBB2C (TUBB2C; [3]): 0.1798; Hybridization signal sample_Cy5 TUBB2C (TUBB2C; 100 mg/kg oral x5 days): 3724.28; log2 (sample/control) TUBB2C (TUBB2C; [4]): −0.3983; Hybridization signal sample_Cy5 TUBB3 (TUBB3; 3 mg/kg oral x5 days): 3650.69; log2 (sample/control) TUBB3 (TUBB3; [1]): 0.09458; Hybridization signal sample_Cy5 TUBB3 (TUBB3; 10 mg/kg oral x5 days): 3706.64; log2 (sample/control) TUBB3 (TUBB3; [2]): −0.1239; Hybridization signal sample_Cy5 TUBB3 (TUBB3; 30 mg/kg oral x5 days): 4409.6; log2 (sample/control) TUBB3 (TUBB3; [3]): −0.002033; Hybridization signal sample_Cy5 TUBB3 (TUBB3; 100 mg/kg oral x5 days): 2253.74; log2 (sample/control) TUBB3 (TUBB3; [4]): −0.4338 |
| (−) 5-((((trans)-2-(4-(benzyloxy)phenyl)cyclopropyl)amino)methyl)-1,3,4-oxadiazol-2-amine [Compound 1] | 55.2994 | −1.452 | 39.6385 | −1.81 | 40.5977 | −1.859 | 40.4596 | −1.786 | 97.9225 | −1.935 | 46.2723 | −2.962 | 45.4319 | −2.9408 | 56.7063 | −2.792 | 5008.03 | −0.03216 | 3965.09 | −0.309 | Hybridization signal sample_Cy5 TUBB2C (TUBB2C; 30 mg/kg oral x5 days): 5060.07; log2 (sample/control) TUBB2C (TUBB2C; [3]): 0.03544; Hybridization signal sample_Cy5 TUBB2C (TUBB2C; 100 mg/kg oral x5 days): 5579.26; log2 (sample/control) TUBB2C (TUBB2C; [4]): 0.0424; Hybridization signal sample_Cy5 TUBB3 (TUBB3; 3 mg/kg oral x5 days): 3553.16; log2 (sample/control) TUBB3 (TUBB3; [1]): −0.1852; Hybridization signal sample_Cy5 TUBB3 (TUBB3; 10 mg/kg oral x5 days): 2424.61; log2 (sample/control) TUBB3 (TUBB3; [2]): −0.5964; Hybridization signal sample_Cy5 TUBB3 (TUBB3; 30 mg/kg oral x5 days): 2911.46; log2 (sample/control) TUBB3 (TUBB3; [3]): −0.1102; Hybridization signal sample_Cy5 TUBB3 (TUBB3; 100 mg/kg oral x5 days): 3667.46; log2 (sample/control) TUBB3 (TUBB3; [4]): −0.02579 |
